Measured values taken from patent US8247230B2, “Plant stem cell line derived from cambium of herbaceous plant with storage root and method for isolating the same” (Unhwa Corporation, priority 2007, dated 2012).

Legend:
[1] = test system: ginseng root cambium-containing explant; assay: Cell induction in ginseng explant cultured in 2,4-D-containing medium; assay type: cell-based; details: about 7-14 days after yellowing
Method: Meanwhile, in order to examine the influence of the hormone used in the induction medium, the explant was cultured in a 2,4-D-containing medium, which was not the cambium-derived cell line induction medium and has been used in the conventional culture of general ginsengs. […] In other words, it could be seen that, when 2,4-D was used, cell line was induced all other tissues, non-specifically to the cambium.
As shown in FIG. 3(b), when a general culture system containing 2,4-D was used in culture, cells were induced from various tissues (cortex, phloem, xylem, cambium, pith, etc.) present in the entire cross section, and the various cells were mixed with each other. Thus, the induced and proliferated cells had heterogeneity. […] Thus, the induced cells had homogeneity.

[2] = test system: carrot root cambium-containing explant; assay: Cell line induction in carrot explant with varying kinds of auxins in induction medium; assay type: cell-based, Daucus carota L.; details: for Cell line induction pattern (in words): auxin used in induction medium; for Reaction with respect to cambium: auxins at the same concentration in induction medium, after osmotic stress
Method: A carrot (Daucus carota L.) was prepared and surface-sterilized in the same manner as in Example 1-1. Then, the prepared sample was treated with osmotic stress in the same manner as in Example 1-2 and Example 1-3, and then a cambium-derived cell line was induced from the carrot.
Also, other plant hormone auxins, including IAA, IBA, picloram, 2,4-D, CPA and NAA, were used at the same concentration to examine the influence of the hormone used in induction medium.

[3] = test system: ginseng cambium-derived cell line; assay: Proliferation of ginseng cambium-derived cell line in growth medium; assay type: cell-based; details: growth medium containing IAA, not 2,4-D
Method: As shown in FIG. 3(a), after the explant was cultured in medium 2 of Example 1 to necrotize tissues other than the cambium, it was subcultured in medium 3. Medium 3 is an optimal medium for the proliferation of the cambium-derived cell line and is based on the basal salt composition shown in Table 6. When the cambium-derived homogeneous cell line having the ability to divide was cultured in medium 3, it continually divided and proliferated. After about 10-20 days of the culture, the cambium-derived cell line was isolated, and the isolated cell line was allowed to proliferate again in the same medium (medium 3).

[4] = test system: true wild ginseng adventitious root cambium-derived cell line; assay: Proliferation of true wild ginseng adventitious root cambium-derived cell line in growth medium; assay type: cell-based; details: hormone used instead of 2,4-D in medium 3
Description: As a result, the cambium-derived homogeneous cell line having the ability to divide continually divided and proliferated, and thus after about 10-20 days of the culture, the cambium-derived homogeneous cell line having the ability to divide could be isolated. The true wild ginseng cambium-derived homogeneous cell line thus isolated was allowed to proliferate again by culturing it in the same medium. […] Meanwhile, in the true wild ginseng adventitious root cambium-containing explant in Example 2-1, the cell line was allowed to proliferate in the same manner as in Example 2, except that IBA was used instead of 2,4-D in Table 7.

MMP-1 = assay: Inhibition of MMP-1 expression caused by UV light (UVB) in NHF cells; assay type: cell-based, human; details: 10 uM, 40 mJ UVB, 48 hours, No UV = 100, Control UV = 230
Method: When MMPs are increased due to exposure to UV light, the increased MMPs degrade skin collagen to form skin wrinkles. Thus, the following test was carried out in order to examine whether MMP-1 expression increased due to UV light is inhibited by an extract or culture medium of the true wild ginseng cambium-derived homogeneous cell line.
NHF (normal human fibroblast) cells used in the test were isolated from the fetal penis prepuce and cultured. The culture medium was prepared by adding 10% fetal bovine serum (FBS, Hyclone, Logan, Utah, USA), inactivated by heating at 56° C. for 30 minutes, 100 unit/ml of penicillin, 100 μg/ml of streptomycin and 300 μg/ml of glutamine to DMEM medium (Invitroge Gibco life tech. Vienna, Austriea). The cells were cultured in the medium in a 5% CO2 incubator at a temperature of 37° C. and a humidity of 95% and subcultured at 3-4-day intervals, immediately before the cells were fused with each other.
NHF(p6) cells were dispensed into a 12-well plate at a density of 75,000 cells/well and starved for 24 hours. Then, the cells were radiated with 40 mJ of UVB and treated with varying concentrations of each sample for 48 hours. Then, an experiment was carried out using a kit (Amersham, RPN 2610). As a positive control group, 10 μM retinoic acid was used. […]

In the case of `O=C(O)COc1ccc(Cl)cc1Cl` [2,4-D, 2,4-dichlorophenoxyacetic acid], the “Cell induction pattern (in words)” value [1] is reported as “cells were induced throughout the whole cross section”, the “Cell line induction pattern (in words)” value [2] is reported as “the cell line was induced throughout the whole explant rather than with respect to the cambium” and the “Reaction with respect to cambium” value [2] is reported as “−”.
For `O=C(O)COc1ccc(Cl)cc1` [CPA], the “Cell line induction pattern (in words)” value [2] was “the cell line was induced throughout the whole explant rather than with respect to the cambium” and the “Reaction with respect to cambium” value [2] was “−”.
With `O=C(O)Cc1c[nH]c2ccccc12` [IAA, indole-3-acetic acid] the “Proliferation in growth medium (in words)” value (“Proliferation” below) [3] was “did not proliferate and showed a tendency to differentiate”, the “Cell line induction pattern (in words)” value [2] was “the homogeneous cell line was induced with respect to the cambium” and the “Proliferation” value [4] was “did not differentiate and showed a tendency to differentiate”.
In the case of `O=C(O)CCCc1c[nH]c2ccccc12` [IBA, indole-3-butyric acid], the “Cell line induction pattern (in words)” value [2] is reported as “the homogeneous cell line was induced with respect to the cambium” and the “Proliferation” value [4] is reported as “did not differentiate and proliferated”.
With `O=C(O)Cc1cccc2ccccc12` [NAA] the “Root induction with the passage of time (in words)” value ([2]; after about 4 weeks) was “a root was induced and differentiated in the cambium”, the “Cell line induction pattern (in words)” value [2] was “the cell line was induced throughout the whole explant rather than with respect to the cambium” and the “Reaction with respect to cambium” value [2] was “−”.
In the case of `Nc1c(Cl)c(Cl)nc(C(=O)O)c1Cl` [Picloram, picloram], the “Cell line induction pattern (in words)” value [2] is reported as “the cell line was induced throughout the whole explant rather than with respect to the cambium” and the “Reaction with respect to cambium” value [2] is reported as “−”.
`CC1=C(/C=C/C(C)=C/C=C/C(C)=C/C(=O)O)C(C)(C)CCC1` [Retinoic acid, retinoic acid] was tested, and the “MMP-1 expression, % of control” value (MMP-1) was 85 % of control.
